Experimental data reported in patent US20030186410A1, “Novel (r)-2-hydroxy-3-phenylpropionate (d-phenyllactate) dehydrogenase and gene encoding the same” (priority 2000, published 2003).

Test system: D-PLDH
Test: Relative enzyme activity of partially purified enzyme solution with different reaction substrates
Assay type: biochemical, Mycelia sterilia
Conditions: partially purified enzyme solution (Mono Q10/10) from pDPLDH-1-carrying E. coli, compound used as reaction substrate
Procedure: A 150 μl portion of buffer solution A containing 250 μM NADPH and 250 μM phenylpyruvic acid was dispensed into wells of a 96-well microtiter plate, 50 μl each of the crude enzyme solution was added and mixed immediately using a pipette, and a change in absorption at 340 nm at 26° C. was measured. The measurement was carried out using an Absorption Microassay Reader BioLumin 960 (Molecular Dynamics) to trace a decrease in absorption with time after the start of the reaction. The amount of the enzyme which oxidized 1 μmol of NADPH per minute was set to be one unit. Results are shown in Table 1 as the enzyme activity of the crude enzyme solution.
Further, the obtained crude enzyme solution was processed using Mono Q10/10 under the conditions described in Example 1-2 to prepare a partially purified enzyme solution. This partially purified enzyme solution was applied onto a 96-well microtiter with different concentrations of the substrate, phenylpyruvic acid, to measure enzyme activity. Further, enzyme activity was also measured with an alternative substrate, pyruvic acid, in place of phenylpyruvic acid. […]

| Structure (SMILES) | Relative reaction rate (rate with phenylypyruvic acid = 100) |
| --- | --- |
| O=C(O)C(=O)Cc1ccccc1 [Phenylpyruvic acid, 2-oxo-3-phenylpropionic acid] | 100 |
| CC(=O)C(=O)O [Pyruvic acid] | 10 |
